Results on twelve compounds are retold here after patent publication US4952585A, “Castanospermine esters in the inhibition of tumor metastasis” (Merrell Dow Pharmaceuticals Inc., priority 1988, dated 1990).

In experiment [1] the test system is B16 melanoma F10 line cells. Description: inhibition of metastatic foci in the lungs of C57/BL mice injected i.v. with B16 melanoma F10 line cells, test compound given i.p. It is filed as in vivo. To be noted: 100 mg/kg, i.p. daily from day 1-15; metastatic foci in the lungs vs. controls. The protocol: In another experiment, 1×10^5 viable B16 melanoma F10 line cells were injected i.v. through the tail vein of C57/BL mice. Test compound was then administered at 100 mg/kg, i.p. daily from day 1-15. At the end of 15 days, the animals were sacrificed and the number of metastatic foci in the lungs were quantitated and compared to controls run simultaneously.

Experiment [2] concerns B16 F10 melanoma cells. Description: inhibition of pulmonary metastases in C57 mice after pretreatment of B16 F10 melanoma cells with test compound in culture. To be noted: Mus musculus, B16-F10, 360 h, pulmonary foci counted fifteen days after i.v. inoculation, read-out: per cent inhibition of metastases; for inhibition in vivo at 1 µg/mL: cells pretreated 48 hours with 1 μg/ml; for inhibition in vivo at 10 µg/mL: cells pretreated 48 hours with 10 μg/ml. The experiment is classed as in vivo, C57 male mice. The protocol:
The lungs provide a convenient organ for the study of metastasis in the animal body.
A single suspension of B16 F10 melanoma cells was prepared from a 14 day old maintenance tumor excised from a C57 male mouse. The tumor was minced and trypsinized followed by dissociation of the cells in minimal essential medium (MEM) with fetal calf serum (FCS) by repeated pipetting. The preparation was passed through a sterile gauze pad, centrifuged, and the cell pellet washed in minimal essential medium without fetal calf serum. A trypan blue wet mount was made to determine the percent of viable cells.
The cells were then plated in 100 mm petri dishes at 0.5×10^6 viable cells/10 ml minimal essential medium with fetal calf serum and incubated at 37° C. for 24 to 48 hours. After incubation, the medium was aspirated and 10 ml of the test compounds at the concentrations of 1 μg or 10 μg/ml MEM with FCS was added. After 24 hours incubation, the medium was aspirated and 10 ml of fresh test compound-medium preparation was added.
Test compounds were dissolved in water or dimethyl sulfoxide and then diluted to the testing concentrations with medium. Control plates receive only medium and/or medium containing dimethyl sulfoxide.
After a total of 48 hours incubation, the testing medium was aspirated, the cells trypsinized and suspended in MEM with FCS. The cells were washed in MEM without FCS and resuspended at the concentration of 10×10^5 cells/ml of MEM without FCS.
C57 male mice weighing 20-25 grams (Charles River) were inoculated intravenously via the tail vein with 2×10^5 cells per 0.2 ml MEM without FCS/mouse. Fifteen days after inoculation, the animals were sacrificed by carbon dioxide inhalation and the lungs were removed and placed in formalin solution. The number of pulmonary foci per animal lung was counted (after separating the lobes) under a lighted dissecting lens.
Data can be expressed as the mean number of foci±S.E. per control and treatment groups. Treatment group data is also expressed as a percent of control and percent of inhibition (100% minus % of control). When the procedure described above was carried out on the castanospermine esters listed below, the per cent inhibition of metastases observed [at the dose, in micrograms per milliliter (μg/ml), given in parentheses] was as follows: […]

Experiment [3] deals with experimental metastasis. To be noted: mice; Cancer Research, 46, 5215 (1986); cited from earlier work.

The structures appear in SMILES notation. A value given as a limit tells only on which side of the number the result lay.

For `O=C(O[C@H]1CN2CC[C@H](O)[C@@H]2[C@@H](O)[C@@H]1O)c1ccco1` [[1S-(1α,6β,7α,8β,8aβ)]-Octahydro-1,6,7,8-indolizinetetrol 6-(2-furancarboxylate)], the “% INHIBITION of metastasis” value in experiment [1] came to 40%. In experiment [2], the inhibition in vivo at 1 µg/mL worked out at 51%.

`Cc1ccccc1C(=O)O[C@H]1CN2CC[C@H](O)[C@@H]2[C@@H](O)[C@@H]1O` [[1S-(1α,6β,7α,8β,8aβ)]-Octahydro-1,6,7,8-indolizinetetrol 6-(2-methylbenzoate)]: the inhibition in vivo at 10 µg/mL in experiment [2] came out at 71%.

Turning to `Cc1cccc(C(=O)O[C@H]2CN3CC[C@H](O)[C@@H]3[C@@H](O)[C@@H]2O)c1` [[1S-(1α,6β,7α,8β,8aβ)]-Octahydro-1,6,7,8-indolizinetetrol 6-(3-methylbenzoate)], the inhibition in vivo at 1 µg/mL in experiment [2] stood at 78%.

Take `COc1ccc(C(=O)O[C@H]2CN3CC[C@H](O)[C@@H]3[C@@H](O)[C@@H]2O)cc1` [[1S-(1α,6β,7α,8β,8aβ)]-octahydro-1,6,7,8-indolizinetetrol 6-(4-methoxybenzoate)]: the inhibition in vivo at 1 µg/mL in experiment [2] was determined as 19%.

Take `Cc1ccc(C(=O)O[C@H]2CN3CC[C@H](O)[C@@H]3[C@@H](O)[C@@H]2O)cc1` [[1S-(1α,6β,7α,8β,8aβ)]-octahydro-1,6,7,8-indolizinetetrol 6-(4-methylbenzoate)]: in experiment [1], the “% INHIBITION of metastasis” value came to 71%. For the same compound, the inhibition in vivo at 10 µg/mL in experiment [2] worked out at 75%.

Regarding `CC(=O)O[C@H]1CN2CC[C@H](O)[C@@H]2[C@@H](O)[C@@H]1O` [[1S-(1α,6β,7α,8β,8aβ)]-octahydro-1,6,7,8-indolizinetetrol 6-acetate], in experiment [2], the inhibition in vivo at 1 µg/mL was > 50%.

Take `O=C(O[C@H]1CN2CC[C@H](O)[C@@H]2[C@@H](O)[C@@H]1O)c1ccccc1` [[1S-(1α,6β,7α,8β,8aβ)]-octahydro-1,6,7,8-indolizinetetrol 6-benzoate]: the “% INHIBITION of metastasis” value in experiment [1] is reported as 66%. Further, in experiment [2], the inhibition in vivo at 1 µg/mL worked out at 35%.

As to `CCCC(=O)O[C@H]1CN2CC[C@H](O)[C@@H]2[C@@H](O)[C@@H]1O` [[1S-(1α,6β,7α,8β,8aβ)]-octahydro-1,6,7,8-indolizinetetrol 6-butanoate], the inhibition in vivo at 10 µg/mL in experiment [2] worked out at 13%.

As to `Cc1ccc(C(=O)O[C@H]2[C@H](O)[C@H]3[C@@H](O)CCN3C[C@@H]2O)cc1` [[1S-(1α,6β,7α,8β,8aβ)]-octahydro-1,6,7,8-indolizinetetrol 7-(4-methylbenzoate)], the inhibition in vivo at 1 µg/mL in experiment [2] was 65%.

With `O=C(O[C@H]1[C@H](O)[C@H]2[C@@H](O)CCN2C[C@@H]1O)c1ccccc1` [[1S-(1α,6β,7α,8β,8aβ)]-octahydro-1,6,7,8-indolizinetetrol 7-benzoate], the inhibition in vivo at 1 µg/mL in experiment [2] was 23%.

Turning to `CCC(=O)O[C@H]1[C@H](O)[C@H]2[C@@H](O)CCN2C[C@@H]1O` [[1S-(1α,6β,7α,8β,8aβ)]-octahydro-1,6,7,8-indolizinetetrol 7-propionate], in experiment [2], the inhibition in vivo at 1 µg/mL was determined as 36%.

Turning to `O[C@H]1[C@H](O)[C@@H](O)CN2CC[C@H](O)[C@H]12` [castanospermine, (1S,6S,7R,8R,8aR)-1,6,7,8-tetrahydroxyindolizidine], the “inhibition of experimental metastasis” value in experiment [3] was “inhibition of experimental metastasis”.
